No end group written: not given here.
What was measured:
Type in all cases: cell-based, human
[1] = tested on: Miltenberger antibody positive sera; experiment: BioVue AHG card column agglutination serology of modified red blood cells; parameters: key: 0 or ‘−’ no agglutination; 0 or ‘−’ no agglutination; 1+ or 3=very weak agglutination; 1+ or 3=very weak agglutination; 2+ or 5=weak agglutination; 2+ or 5=weak agglutination; 3+ or 8=moderate strong agglutination; 3+ or 8=moderate strong agglutination; 4+ or 10/12=strong agglutination; 4+ or 10/12=strong agglutination; 4+ or 10/12=strong agglutination
[2] = tested on: TAP1 serum (Taiwan Miltenberger antibody positive sample); experiment: Anti-MUT serum (TAP1) reactivity of modified RBCs (saline and AHG); parameters: key: 0 or ‘−’ no agglutination; 0 or ‘−’ no agglutination; 1+ or 3=very weak agglutination; 1+ or 3=very weak agglutination; 2+ or 5=weak agglutination; 2+ or 5=weak agglutination; 3+ or 8=moderate strong agglutination; 3+ or 8=moderate strong agglutination; 4+ or 10/12=strong agglutination; 4+ or 10/12=strong agglutination; 4+ or 10/12=strong agglutination
[3] = tested on: sera reactive with modified RBCs; experiment: Neutralisation of reactive sera with free peptide, retested against modified RBCs (BioVue); parameters: key: 0 or ‘−’ no agglutination; 0 or ‘−’ no agglutination; 1+ or 3=very weak agglutination; 1+ or 3=very weak agglutination; 2+ or 5=weak agglutination; 2+ or 5=weak agglutination; 3+ or 8=moderate strong agglutination; 3+ or 8=moderate strong agglutination; 4+ or 10/12=strong agglutination; 4+ or 10/12=strong agglutination; 4+ or 10/12=strong agglutination; conditions: cells modified with the peptide-lipid construct M22; AHG test in BioVue
Source text: Optionally, where F is a peptide, the method includes the preliminary step of: • Adding an amount of the peptide to the sample of the serum; where the amount of the peptide is sufficient to neutralize non-specific agglutination or confirm specificity of the reactive antibody.

antibody negative serums = experiment: False positive reactions of modified RBCs with antibody negative serums/plasma; parameters: key to Reaction score BioVue AHG, PAC samples 1-46, 49, 50, 52, 53 / Reaction score BioVue AHG, PAC sample 47 / Reaction score BioVue AHG, PAC sample 48 / Reaction score BioVue AHG, PAC sample 51 / agglutination score, T series serum 2 / agglutination score, T series serum 42 / agglutination score, T series serum 63 / agglutination score, T series serum 62 / agglutination score, T series serum 7 / agglutination score, T series serum 20 / agglutination score, T series serum 48 / agglutination score, T series serum 22 / agglutination score, T series serum 39 / agglutination score, T series serum 23 / agglutination score, T series serum 30 / agglutination score, T series serum 4 / agglutination score, T series serum 31 / agglutination score, T series serum 44 / agglutination score, T series serum 61 / agglutination score, T series serum 18 / agglutination score, T series serum 21 / agglutination score, T series serum 28 / agglutination score, T series serum 55 / agglutination score, false positive serum T18 / agglutination score, false positive serum T21 / agglutination score, false positive serum T28 / agglutination score, false positive serum T55 / agglutination score, false positive serum T78 / agglutination score, false positive serum T92: 0 or ‘−’ no agglutination; 0 or ‘−’ no agglutination; 1+ or 3=very weak agglutination; 1+ or 3=very weak agglutination; 2+ or 5=weak agglutination; 2+ or 5=weak agglutination; 3+ or 8=moderate strong agglutination; 3+ or 8=moderate strong agglutination; 4+ or 10/12=strong agglutination; 4+ or 10/12=strong agglutination; 4+ or 10/12=strong agglutination
[4] = Australia, Melb Path, 45 tested, construct 50 μg/ml
[5] = Australia, RNSH, 500 tested, construct 50 μg/ml
[6] = Malaysia, UMMC, 749 tested, construct 50 μg/ml
[7] = Philippines, Metrop Hosp, 60 tested, construct 50 μg/ml
[8] = blood donor plasma, construct 50 μg/ml (2 hours, 37° C.)

M22: DOPE peptide-lipid construct: MUTK peptide SQTNDKHKRD, leader c, spacer CMG(2) (SQTNDKHKRDC; also: DOPE peptide-lipid construct via leader Cys, spacer CMG(2))
BioVue score vs TAP1 ([1]; construct 50 μg/ml): 8 | BioVue score vs positive sample 2 T217 (T) ([1]; construct 50 μg/ml): 0 | BioVue score vs positive sample 3 T165 (Mur) ([1]; construct 50 μg/ml): 0 | BioVue score vs positive sample 4 T7202 (M) ([1]; construct 50 μg/ml): 0 | BioVue score vs positive sample 8 T5896 (M + K + Mur) ([1]; construct 50 μg/ml): 0 | TAP 2 Serum BioVue AHG score ([1]; construct 100 μg/ml): 0 | TAP 1 Serum, AHG score ([2]; construct 10 μg/ml): 5 | TAP 1 Serum, Saline score ([2]; construct 10 μg/ml): 0 | TAP 1 Serum, AHG score ([2]; construct 20 μg/ml): 8 | TAP 1 Serum, Saline score ([2]; construct 20 μg/ml): 0 | TAP 1 Serum, AHG score ([2]; construct 50 μg/ml): 8 | TAP 1 Serum, Saline score ([2]; construct 50 μg/ml): 0 | Reactivity with anti-MUT serum TAP1 ([2]; construct 50 μg/ml (2 hours, 37° C.)): 8 | TAP 1 Serum, AHG score ([2]; construct 100 μg/ml): 8 | TAP 1 Serum, Saline score ([2]; construct 100 μg/ml): 0 | TAP 1 Serum, AHG score ([2]; construct 200 μg/ml): 10 | TAP 1 Serum, Saline score ([2]; construct 200 μg/ml): 0 | Pre-neutralisation serology, PAC74 [3]: 8 | Pre-neutralisation serology, TAP1 [3]: 8 | % Positive, BioVue (antibody negative serums; Australia, CSL, 100 tested, construct 50 μg/ml): 3.0% | Number Positive, BioVue (antibody negative serums; Australia, CSL, 100 tested, construct 50 μg/ml, 3 h RT then 18 h 4° C.): 3 | % Positive, BioVue (antibody negative serums; [4]): 4.5% | Number Positive, BioVue (antibody negative serums; [4]): 2 | % Positive, BioVue (antibody negative serums; [5]): 0.4% | % Positive, DiaMed (antibody negative serums; [5]): 0.4% | Number Positive, BioVue (antibody negative serums; [5]): 2 | Number Positive, DiaMed (antibody negative serums; [5]): 2 | % Positive, BioVue (antibody negative serums; [6]): 2.5% | Number Positive, BioVue (antibody negative serums; [6]): 19 | % Positive, Tube (antibody negative serums; [7]): 0% | Number Positive, Tube (antibody negative serums; [7]): 0 | Reaction score BioVue AHG, PAC sample 47 (antibody negative serums; [8]): 0 | Reaction score BioVue AHG, PAC sample 48 (antibody negative serums; [8]): 0 | Reaction score BioVue AHG, PAC sample 51 (antibody negative serums; [8]): 0 | Reaction score BioVue AHG, PAC samples 1-46, 49, 50, 52, 53 (antibody negative serums; [8]): 0 | % False Positives (antibody negative serums; panel of blood donor plasma samples (PAC), BioVue AHG, construct 50 μg/ml): 0%

Source: patent US10919941B2, “Functional lipid constructs” (KODE BIOTECH LIMITED, priority 2007, dated 2021)
